{
  "source": "patent US11603387B2",
  "about": "“SOCS mimetics for the treatment of diseases” (UNIVERSITY OF FLORIDA RESEARCH FOUNDATION, INC., priority 2014, dated 2023)",
  "key": {"[1]": {"test_system": "CD4+CD25− T cells from C56BL/6 mice", "experiment": "Th17 induction (iTh17) and activation of CD4+CD25− T cells, SOCS1 monomer vs dimer", "type": "cell-based, mouse", "details": "Th17 inducing conditions, peptide 20 μM, 5 days", "method": "FIG. 11. […] CD4+CD25− T cells from B6 mice were in the presence of Th17 inducing conditions in the presence of SOCS1 monomer or dimer for 5 days. Cells were re-stimulated with PMA, ionomycin, and brefeldin, followed by staining with anti-CD4, anti-IL17, and anti-CD25 antibodies.\nInduction of Th17 cells, iTh17, and the effect of treatment on induction is illustrated in FIG. 11. CD4^+CD25^− T cells from C56BL/6 mice were incubated for 5 days at 37° C. under 1) control conditions (anti-CD3 (10 μg/ml), anti-CD28 (1.5 μg/ml)); 2) Th17 inducing conditions (anti-CD3, anti-CD28, IL-6 (20 ng/ml), TGF-β (5 ng/ml)); 3) Th17 inducing conditions with SOCS1 monomer (20 μM), or Th17 inducing conditions with SOCS1 dimer (20 μM). Following a 5-day incubation, cells were re-stimulated with phorbol myristic acetate (PMA) (50 ng/ml), ionomycin (1 μM), and brefeldin A (10 μg/ml). To assess Th17 differentiation, cells were stained with anti-CD4 and anti-IL-17A antibodies. To assess activation, cells were stained with anti-CD4 and anti-CD25 antibodies."}, "Anti-cellular activity": {"experiment": "Anti-cellular activity", "type": "cell-based", "details": "dimer compared with monomer"}, "JAK2": {"target": "JAK2 (Homo sapiens, UniProt O60674)", "sequence (O60674 whole entry, species assumed)": "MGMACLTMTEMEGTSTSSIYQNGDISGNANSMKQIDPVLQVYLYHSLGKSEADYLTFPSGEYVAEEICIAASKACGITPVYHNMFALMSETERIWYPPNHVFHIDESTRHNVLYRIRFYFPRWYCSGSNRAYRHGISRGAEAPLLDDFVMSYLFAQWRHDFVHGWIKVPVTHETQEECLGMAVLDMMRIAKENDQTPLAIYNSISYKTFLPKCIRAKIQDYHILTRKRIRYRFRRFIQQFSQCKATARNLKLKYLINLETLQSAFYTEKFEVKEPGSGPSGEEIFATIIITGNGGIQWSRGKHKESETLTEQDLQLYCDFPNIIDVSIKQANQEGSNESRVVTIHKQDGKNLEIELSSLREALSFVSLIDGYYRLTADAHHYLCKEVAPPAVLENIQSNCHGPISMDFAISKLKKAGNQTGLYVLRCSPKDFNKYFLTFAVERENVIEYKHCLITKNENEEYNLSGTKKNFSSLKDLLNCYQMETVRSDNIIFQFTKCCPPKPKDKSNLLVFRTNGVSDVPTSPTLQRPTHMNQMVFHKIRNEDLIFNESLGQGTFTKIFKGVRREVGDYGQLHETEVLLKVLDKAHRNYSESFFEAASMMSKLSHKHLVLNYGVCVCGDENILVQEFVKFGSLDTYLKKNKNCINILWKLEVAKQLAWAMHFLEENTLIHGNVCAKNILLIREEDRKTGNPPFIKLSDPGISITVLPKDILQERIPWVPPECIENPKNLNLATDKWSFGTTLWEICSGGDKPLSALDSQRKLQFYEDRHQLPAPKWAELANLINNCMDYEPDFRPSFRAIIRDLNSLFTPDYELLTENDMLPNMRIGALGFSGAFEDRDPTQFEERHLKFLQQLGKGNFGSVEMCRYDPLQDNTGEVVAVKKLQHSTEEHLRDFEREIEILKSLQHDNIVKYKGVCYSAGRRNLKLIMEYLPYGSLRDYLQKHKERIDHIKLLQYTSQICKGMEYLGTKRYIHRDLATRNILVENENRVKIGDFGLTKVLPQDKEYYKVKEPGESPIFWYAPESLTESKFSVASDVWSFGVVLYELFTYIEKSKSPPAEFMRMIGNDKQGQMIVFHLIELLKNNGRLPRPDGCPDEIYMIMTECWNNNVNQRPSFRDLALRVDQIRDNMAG", "experiment": "Binding to the activation loop of JAK2", "details": "dimer compared with monomer"}, "SOCS1": {"test_system": "SOCS1", "experiment": "SOCS1 expression (qPCR, relative to GAPDH) in healthy control PBMCs treated in vitro", "type": "cell-based, human", "details": "chloroquine diphosphate salt for 12 and 24 h", "method": "FIGS. 9A and 9B. SOCS1 expression is not affected by chloroquine treatment, but is increased by dexamethasone treatment. (FIG. 9A) PBMCs, taken from healthy controls, were treated with (FIG. 9A) chloroquine diphosphate salt at the indicated molar concentrations for 12 and 24 h or (FIG. 9B) dexamethasone at the indicated molar concentrations for 3, 6, 12, or 24 h. Post treatment, SOCS1 expression, relative to GAPDH, was assessed via qPCR. Results shown as mean±s.e.m. The Kruskal-Wallis test followed by the Dunn's Multiple Comparison Test was chosen to assess statistical significance. (*P<0.05).\nPBMCs were purified from heparinized blood by Ficoll-Paque gradient centrifugation. Briefly, whole blood was diluted with PBS (1:1) and gently layered on the Ficoll (Lymphocyte Separation Medium; Cellgro, Manassas, Va.). […]\nUsing the Promega RNA extraction protocol, total RNA was extracted from human PBMCs ex vivo or from mouse CD4^+CD25^− cells after being cultured under control (anti-CD3 and anti-CD28) or Th17 inducing conditions in the presence or absence of SOCS1-KIR peptide. cDNA synthesis and qPCR were performed as described in (Collins et al. 2011), with modifications. […] The amplification reactions took place in a PTC-200 Peltier Thermal Cycler with a CHROMO 4 Continuous Fluorescence Detector (BioRad). […] The fold change in expression was calculated using the ΔΔCT method."}, "SLE patients": {"test_system": "SLE patients", "experiment": "Subgroup analysis of SLE patients with and without prednisone treatment (PBMC western blot, RT-PCR)", "type": "in vivo, human", "details": "SLE patients receiving vs not receiving prednisone", "from_the_text": "FIGS. 20A-20F. […] Results shown are mean±SE; *represents significant Pearson correlation; ^ represents a t-test with significant mean difference. Correlation was considered significant at 0.05 level (2 tailed).\nThe UF Institutional scientific research and review board (IRB) on human subjects approved the study protocol. Written informed consent were obtained from all patients and controls in the study. In all, 34 SLE patients and 11 healthy controls were enrolled in the present study (Table 5). All SLE patients fulfilled the 1982 American College of Rheumatology (ACR) revised criteria for SLE (Tan et al. 1982). The patient's age ranged from 22 to 73 years while the health controls age ranged from 27 to 55 years. Healthy controls (N=11) were recruited from the outpatient clinics at the participating institutions. All patients underwent baseline investigations as per clinical requirements. Disease activity was assessed by the SLE disease activity index (SLEDAI) (Bombardier et al. 1992).\nPBMCs were purified from heparinized blood by Ficoll-Hypaque gradient centrifugation. Briefly, whole blood was diluted with PBS (1:1) and gently layered on Ficoll (Lymphocyte Separation Medium; Cellgro, Manassas, Va.). Cells were centrifuged continuously at 400×g for 20 minutes. PBMCs were collected from the interface layer and washed 3 times with PBS. After isolation, PBMCs were lysed with RNA lysis buffer (Promega) and stored at −80° C. until RNA extraction and qPCR protocols were performed.\nRT-PCR was performed to determine the transcript levels of SOCS1, SOCS3 and STAT1 genes in PBMCs, relative to GAPDH. In brief, cDNA synthesis was performed using the iQ cDNA synthesis kit (Bio-Rad; Hercules, Calif.). The qPCR was subsequently performed using the iQ SYBR Green Super mix (Bio-Rad) and gene-specific primers for SOCS1, SOCS3, IFN-G and IL-27. The real time RT-PCR reaction was performed on CFX Connect™-Real time system. The PCR for the target gene and GAPDH was duplicated twice for each sample and the results were corrected for GAPDH expression as an internal control. Further the data was analyzed using CFX Manager™ software version 3.0 (Bio-Rad technologies, Inc.).\nFrozen PMBC cell pellets were thawed and lysed in RIPA lysis buffer (Santa Cruz Technologies, Inc.) followed by protein estimation through BSA 2.0 mg/ml standard curve preparation with Pierce protein assay reagents (Thermo Scientific Product #23209). Equal quantities of proteins were loaded and separated in 4%-12% SDS PAGE gel (Bio-rad) and separated proteins were transferred to nitrocellulose membrane (Bio-Rad Laboratories, Hercules, Calif.). The membranes were then blocked and incubated with polyclonal anti-rabbit antibodies specific to the KIR regions of SOCS1 and SOCS3 (a kind gift from Dr. Howard Johnson Labs, UF), anti-pSTAT1; anti-pERK1/2; anti-pAKT and for total STAT1; ERK1/2 and AKT respectively (Cell signaling). Further probed with appropriate secondary antibodies conjugated to HRP, and visualized with the ECL detection system according to the manufacturer's instruction (Pierce; Thermo Scientifics) The GAPDH was used as a loading control. The results were calculated as densitometry arbitrary units using the J image online software."}},
  "data": [
    {"compound": "DTHFRTFRSHSDYRRIGGGGGGDTHFRTFRSHSDYRRI (SOCS1-KIR dimer peptide) [SOCS1-KIR mimetic as a dimer with a six glycine (G) linker]", "values": [
      {"measurement": "Inhibition of CD4+ T cell activation (CD25 staining)", "setting": "[1]", "value": "More Effective than SOCS1 Monomer"},
      {"measurement": "Inhibition of iTh17 induction (IL-17A staining)", "setting": "[1]", "value": "greater inhibitory effects on iTh17 than did the monomer"},
      {"measurement": "Anti-cellular activity", "setting": "Anti-cellular activity", "value": "increased anti-cellular activity"},
      {"measurement": "Avidity for the activation loop of JAK2", "setting": "JAK2", "value": "significantly increased the avidity"}
    ]},
    {"compound": "CCN(CC)CCCC(C)Nc1ccnc2cc(Cl)ccc12", "note": "(stereo not shown) [chloroquine]", "values": [
      {"measurement": "SOCS1 expression", "setting": "SOCS1", "value": "not affected"}
    ]},
    {"compound": "C[C@]12C=CC(=O)C=C1CC[C@@H]1[C@@H]2C(=O)C[C@@]2(C)[C@H]1CC[C@]2(O)C(=O)CO", "note": "[prednisone]", "values": [
      {"measurement": "SOCS 1/3 message expression", "setting": "SLE patients", "value": "no effect"},
      {"measurement": "SOCS3 protein levels", "setting": "SLE patients", "value": "no effect"},
      {"measurement": "STAT1 phosphorylation", "setting": "SLE patients", "value": "no effect"},
      {"measurement": "SOCS1 protein levels", "setting": "SLE patients; significant in inactive SLEDIA (n=9, p<0.001)", "value": "consistently had higher SOCS1 protein levels"},
      {"measurement": "pErk1/2 activation", "setting": "SLE patients; significant in inactive SLEDIA patients", "value": "higher levels of pErk1/2 activation"}
    ]}
  ]
}
